Counter-ions that a name gives are not always drawn. Like-named read-outs stand apart in the source and are kept apart here.

The nature of series [1]: Osmolality of amantadine hydrochloride solution in sterile water for injection. Type of series: physicochemical. An excerpt: Examples of tonicity agents that can be used in the compositions of the present invention include, but are not limited to, sodium chloride, mannitol, dextrose, potassium chloride, sodium chloride and mixtures thereof. The tonicity agents may be present in an amount so as to provide osmolality of from about 250 mOsm/kg to about 350 mOsm/kg, particularly from 280 mOsm/kg to 320 mOsm/kg.

For series [2] the following is noted: continuous subcutaneous administration, Parkinson's disease patients; cited from earlier work.
Series [3] deals with fluid percussion injury. The settings on record: chronic amantadine-pumping infusion, cited from earlier work.
The conditions of series [4]: postmortem brain tissue of 21 patients previously treated with amantadine sulfate; cited from earlier work.
Series [5] can be described thus: Pharmacokinetic study in 10 healthy subjects: intravenous infusion vs oral capsules. Type of series: in vivo, human. The following applies: for Tmax / Cmax / half-life: fasted healthy subjects.
In series [6] the test system is persistent vegetative state. The following applies: single patient; 100 mg/day intravenously increased to 300 mg/day, then enteral; cited from earlier work.

Take `NC12CC3CC(CC(C3)C1)C2` [amantadine hydrochloride]: the Osmolality in series [1] (10 mg/ml solution in sterile water for injection) is 97 mOsm/kg; in series [1] (20 mg/ml solution in sterile water for injection) it was 192 mOsm/kg; in series [1] (30 mg/ml solution in sterile water for injection), 283 mOsm/kg; in series [1] (40 mg/ml solution in sterile water for injection), 369 mOsm/kg; in series [1] (50 mg/ml solution in sterile water for injection), 509 mOsm/kg; in series [1] (75 mg/ml solution in sterile water for injection), 671 mOsm/kg.

For `CN1CCc2cccc3c2[C@H]1Cc1ccc(O)c(O)c1-3` [apomorphine], in series [2], the “eosinophilia and orthostatic hypotension, share of PD patients” value is “less than 5%”.

For the compound `NC12CC3CC(CC(C3)C1)C2` [amantadine, 1-amantanamine], in series [3] (rats after fluid percussion injury), the dopamine-release deficits entry is “reversed”. For the same compound, in series [3] (rats), the “behavioral impairment after fluid percussion injuries” value is given as “ameliorated”. The “elimination half-life from brain tissue” value in series [4] is “much longer than from blood”. Also, the “Peak and total plasma exposures following the infusion, lower than reference oral dose” value in series [5] (50 mg intravenous infusion vs 200 mg oral dose) is listed as “approximately 5 fold”. Besides, the Tmax – broadly, the time at which the peak concentration occurs – in series [5] (human, plasma, iv, 50 mg, Treatment A: single 50 mg dose, intravenous infusion over 180 minutes, plasma, read-out: mean Tmax) is 4.1 h; in series [5] (human, plasma, iv, 50 mg, Treatment A: single 50 mg dose, intravenous infusion over 180 minutes, plasma, read-out: median Tmax), 4 h; in series [5] (human, plasma, po, 200 mg, Treatment B: single 200 mg oral dose as 2×100 mg capsules, plasma, read-out: mean Tmax), 3.6 h; in series [5] (human, plasma, po, 200 mg, Treatment B: single 200 mg oral dose as 2×100 mg capsules, plasma, read-out: median Tmax) it was 2.8 h. The bioavailability in series [5] (human, plasma, 200 mg oral, from LSGM A/B ratio of CLIV to CLIV/F, read-out: bioavailability of the oral capsule) came to 122%. Besides, the Cmax (usually the peak of the concentration-time curve) worked out at 142 ng/mL in series [5] (human, Treatment A: single 50 mg dose, intravenous infusion over 180 minutes, plasma) and 643 ng/mL in series [5] (human, Treatment B: single 200 mg oral dose as 2×100 mg capsules, plasma). The half-life in series [5] (human, Treatment A: single 50 mg dose, intravenous infusion over 180 minutes, plasma, read-out: mean apparent first-order elimination half-life (T1/2) (converted)) is 14 h; in series [5] (human, Treatment B: single 200 mg oral dose as 2×100 mg capsules, plasma, read-out: mean T1/2 (converted)), 14.6 h. In series [6], the “clinical outcome in persistent vegetative state” value is recorded as “stunning awakening of the patient, fully orientated within days”.

The values above are taken from patent US11707439B2, “Parenteral treatments involving aminoadamantane derivatives” (Shinkei Therapeutics, Inc., priority 2019, dated 2023).
